Assay results: patent US20170042916A1, “ANIMAL TISSUE COLONIZATION AND TREATMENT OF INFECTION” (priority 2014, published 2017)

How the values were obtained:
Stability in water = type: physicochemical
From the text: 3-(trimethoxysilyl) propyldimethyloctadecyl ammonium chloride (hereinafter also referred to as “Trimethoxy”) 104, is illustrated in FIG. 2 only as a precursor to the Trihydroxy molecule, when hydrolyzed by addition to water, shown in FIG. 1. […] Conventional methods of use of Trimethoxy 104 includes addition of a dilute solution in methanol to water. The EPA label required for Trimethoxy compounds states: “Danger. Corrosive. Causes irreversible eye damage and skin burns. Methanol may cause blindness. May be fatal if inhaled. May be harmful if swallowed or absorbed through the skin.”
The compound must then be used within a short period of time, such as a few hours to at most 12 hours, to treat a surface or fabric to produce a permanent surface coating.

[1] = test system: mixed bacterial/fungal infectious otitis externa and infectious dermatitis; experiment: Example 1: treatment of otitis externa and dermatitis in a Shih Tzu dog; type: in vivo; conditions: oral, four weeks, before treatment with the composition
From the text: Conner's chest, neck, paws, and face were cleaned and treated twice daily with antimicrobial wipes (Douxo Chlorhexiding pads®) and an antimicrobial lotion (ResiKetoChlor®). The ears were cleaned once daily with a tris-EDTA/ketoconazole solution (TrizUltra plus Keto®) and treated twice daily with an amikacin otic preparation.
The animal had generalized mixed hypotrichosis/alopecia, erythema, hyperpigmentation, and lichenification with crusting over dorsal trunk, legs, paws, and ventrum. Hair on the face and neck was severely matted. The skin underlying the mats was crusted, with moist dermatitis and brown purulent exudate. Lymph node enlargement was palpated in the mandibular, prescapular, and popliteal node groups.
A generalized severe Malassezia (yeast) dermatitis was concentrated mostly on ventrum and paws. […] Fine-needle aspirates of peripheral lymph nodes (left prescapular and left popliteal) were consistent with reactive lymphadenopathy.
The otitis externa was treated initially by cleaning the ears with a salicylic acid based ear cleaner (Otoclean®) and instillation of 0.5 ml of the disclosed composition comprising Trihydroxy in each ear. Mats were removed and the dog was bathed and groomed over two days using (Splash plus® shampoo), followed by antimicrobial shampoo (Douxo Chlorhexidine® shampoo), followed by essential fatty acid cream rinse (Hylyt® cream rinse). […]

Compound | stability in water (Stability in water) | outcome of earlier conventional therapy [1]
CCCCCCCCCCCCCCCCCC[N+](C)(C)CCC[Si](O)(O)O.[Cl-] [Trihydroxy, 3-(trihydroxysilyl) propyldimethyloctadecyl ammonium chloride] | stable with no other additives in water | –
amoxicillin/clavulanate | – | failed
OC(Cn1cncn1)(Cn1cncn1)c1ccc(F)cc1F [fluconazole] | – | failed
CCCCCCCCCCCCCCCCCC[N+](C)(C)CCC[Si](OC)(OC)OC.[Cl-] [Trimethoxy, 3-(trimethoxysilyl) propyldimethyloctadecyl ammonium chloride] | unstable in water | –
